Holding throughout (assay type): cell-based
For assay [1], the target named is T1, pERK1/2 (Thr202/Tyr204), NCI-1H358 (KRAS G12C) (Homo sapiens, UniProt P01116, G12C).
T1 construct: pERK1/2 HTRF read-out
The assay can be described thus: Assay of intracellular pERK1/2 (Thr202/Tyr204) phosphorylation in NCI-H358 cells (KRAS G12C). As to conditions: pERK1/2, 2 days, read-out: NCI-H358 (KRAS G12C) IC50. The essentials:
(§1)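 Cells (10000-12000/well) exposed to 3-fold compound dilutions for 2 days at 37 °C, then lysed; pERK1/2 (Thr202/Tyr204) measured by HTRF with d2 and cryptate antibodies, 665/615 nm ratio.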

The target in assay [2] is T2, pERK1/2 (Thr202/Tyr204), PANC-1 (KRAS G121D) (Homo sapiens, UniProt P01116, G12D).
T2 construct: pERK1/2 HTRF read-out
The assay can be described thus: Assay of intracellular pERK1/2 (Thr202/Tyr204) phosphorylation in PANC-1 cells (KRAS G12D). As to conditions: pERK1/2, 2 days, read-out: PANC-1 (KRAS G12D) IC50. The gist of the method: as §1

Assay [3] addresses T3, pERK1/2 (Thr202/Tyr204), NCI-1H441 (KRAS G12V) (Homo sapiens, UniProt P01116, G12V).
T3 construct: pERK1/2 HTRF read-out
Description: Assay of intracellular pERK1/2 (Thr202/Tyr204) phosphorylation in NCI-H441 cells (KRAS G12V). As to conditions: pERK1/2, 2 days, read-out: NCI-H441 (KRAS G12V) IC50. The essentials: as §1

These results are taken from US20260356851A1, “TRICYCLIC COMPOUNDS AND USES THEREOF” (HUTCHMED LIMITED, priority 2023, published 2026).

Some results are limits rather than exact numbers.

T2 sequence (P01116 1-188 isoform P01116-2 G12D): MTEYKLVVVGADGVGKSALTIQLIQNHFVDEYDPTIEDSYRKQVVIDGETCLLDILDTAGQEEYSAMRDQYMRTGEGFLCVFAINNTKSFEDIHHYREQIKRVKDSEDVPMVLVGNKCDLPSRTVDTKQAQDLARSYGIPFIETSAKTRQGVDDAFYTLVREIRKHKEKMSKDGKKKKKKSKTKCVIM
T3 sequence (P01116 1-188 isoform P01116-2 G12V): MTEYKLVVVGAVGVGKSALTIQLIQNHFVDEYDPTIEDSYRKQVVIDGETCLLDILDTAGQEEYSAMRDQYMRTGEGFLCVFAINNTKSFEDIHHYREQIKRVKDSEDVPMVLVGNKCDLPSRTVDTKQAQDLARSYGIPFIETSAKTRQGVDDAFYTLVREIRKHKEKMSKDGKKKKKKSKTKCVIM
T1 sequence (P01116 1-188 isoform P01116-2 G12C): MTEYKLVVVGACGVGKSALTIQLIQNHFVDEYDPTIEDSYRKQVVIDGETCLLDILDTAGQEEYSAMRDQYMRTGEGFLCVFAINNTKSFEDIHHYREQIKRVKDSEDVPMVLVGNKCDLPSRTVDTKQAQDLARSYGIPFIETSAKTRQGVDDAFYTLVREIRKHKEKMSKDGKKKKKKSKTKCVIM

Broadly, the IC50 is the midpoint of a concentration-inhibition curve. Turning to `CC(c1cccnc1N)N1CCOc2nc(-c3cc(N)cc(Cl)c3C3CC3)c(F)c3nc(OC[C@@]45CCCN4C[C@H](F)C5)nc1c23` (single isomer, unassigned) [Compound 74, 3-((R or S)-1-(5-(5-amino-3-chloro-2-cyclopropylphenyl)-4-fluoro-2-(((2R,7aS)-2-fluorotetrahydro-1H-pyrrolizin-7a(5H)-yl)methoxy)-8,9-dihydro-10H-7-oxa-1,3,6,10-tetraazacyclohepta[de]naphthalen-10-yl)ethyl)pyridin-2-amine], the figures for the half-inhibitory concentration (IC50) in assay [1], in assay [2] and in assay [3] were 0.2 nM, 4 nM and 0.4 nM, respectively.
For `CC(c1cccnc1N)N1CCOc2nc(-c3cc(N)cc(Cl)c3C3CC3)c(F)c3nc(OC[C@@]45CCCN4C[C@H](F)C5)nc1c23` (single isomer, unassigned) [Compound 75, 3-((R or S)-1-(5-(5-amino-3-chloro-2-cyclopropylphenyl)-4-fluoro-2-(((2R,7aS)-2-fluorotetrahydro-1H-pyrrolizin-7a(5H)-yl)methoxy)-8,9-dihydro-10H-7-oxa-1,3,6,10-tetraazacyclohepta[de]naphthalen-10-yl)ethyl)pyridin-2-amine], in that order: 5 nM, 40 nM and 11 nM.
For `Cc1cc(N)cc(-c2nc3c4c(nc(OC[C@@H]5CCCN5C)nc4c2F)N(C(C)c2cccnc2N)CCO3)c1C(F)(F)F` (single isomer, unassigned) [Compound 76, 3-((R or S)-1-(5-(5-amino-3-methyl-2-(trifluoromethyl)phenyl)-4-fluoro-2-(((S)-1-methylpyrrolidin-2-yl)methoxy)-8,9-dihydro-10H-7-oxa-1,3,6,10-tetraazacyclohepta[de]naphthalen-10-yl)ethyl)pyridin-2-amine], in that order: 0.5 nM, 18 nM and 0.7 nM.
The corresponding values for `Cc1cc(N)cc(-c2nc3c4c(nc(OC[C@@H]5CCCN5C)nc4c2F)N(C(C)c2cccnc2N)CCO3)c1C(F)(F)F` (single isomer, unassigned) [Compound 77, 3-((R or S)-1-(5-(5-amino-3-methyl-2-(trifluoromethyl)phenyl)-4-fluoro-2-(((S)-1-methylpyrrolidin-2-yl)methoxy)-8,9-dihydro-10H-7-oxa-1,3,6,10-tetraazacyclohepta[de]naphthalen-10-yl)ethyl)pyridin-2-amine] are 38 nM, over 100 nM and 37 nM.
`Cc1cc(N)cc(-c2nc3c4c(nc(OC[C@H]5CCCN5CCF)nc4c2F)N(C(C)c2cccnc2N)CCO3)c1C(F)(F)F` (single isomer, unassigned) [Compound 78, 3-((R or S)-1-(5-(5-amino-3-methyl-2-(trifluoromethyl)phenyl)-4-fluoro-2-(((R)-1-(2-fluoroethyl)pyrrolidin-2-yl)methoxy)-8,9-dihydro-10H-7-oxa-1,3,6,10-tetraazacyclohepta[de]naphthalen-10-yl)ethyl)pyridin-2-amine]: the IC50 in assay [1] was found to be 2 nM; in assay [2] it was 42 nM; in assay [3], 3 nM.
The corresponding values for `Cc1cc(N)cc(-c2nc3c4c(nc(OC[C@H]5CCCN5CCF)nc4c2F)N(C(C)c2cccnc2N)CCO3)c1C(F)(F)F` (single isomer, unassigned) [Compound 79, 3-((R or S)-1-(5-(5-amino-3-methyl-2-(trifluoromethyl)phenyl)-4-fluoro-2-(((R)-1-(2-fluoroethyl)pyrrolidin-2-yl)methoxy)-8,9-dihydro-10H-7-oxa-1,3,6,10-tetraazacyclohepta[de]naphthalen-10-yl)ethyl)pyridin-2-amine] are over 100 nM, over 100 nM and over 100 nM.
For the compound `Cc1cc(N)cc(-c2nc3c4c(nc(OC[C@@H]5C[C@@H](F)CN5C)nc4c2F)N(C(C)c2cccnc2N)CCO3)c1C(F)(F)F` (single isomer, unassigned) [Compound 80, 3-((R or S)-1-(5-(5-amino-3-methyl-2-(trifluoromethyl)phenyl)-4-fluoro-2-(((2S,4R)-4-fluoro-1-methylpyrrolidin-2-yl)methoxy)-8,9-dihydro-10H-7-oxa-1,3,6,10-tetraazacyclohepta[de]naphthalen-10-yl)ethyl)pyridin-2-amine], the IC50 in assay [1] is 0.5 nM; in assay [2] it was 19 nM; in assay [3] it was 0.7 nM.
As to `Cc1cc(N)cc(-c2nc3c4c(nc(OC[C@@H]5C[C@@H](F)CN5C)nc4c2F)N(C(C)c2cccnc2N)CCO3)c1C(F)(F)F` (single isomer, unassigned) [Compound 81, 3-((R or S)-1-(5-(5-amino-3-methyl-2-(trifluoromethyl)phenyl)-4-fluoro-2-(((2S,4R)-4-fluoro-1-methylpyrrolidin-2-yl)methoxy)-8,9-dihydro-10H-7-oxa-1,3,6,10-tetraazacyclohepta[de]naphthalen-10-yl)ethyl)pyridin-2-amine], the half-maximal inhibitory concentration (IC50) in assay [1], in assay [2] and in assay [3] was over 100 nM in each case.
On to `Cc1c(F)c(N)cc(-c2nc3c4c(nc(OC[C@@H]5CCCN5C)nc4c2F)N(C(C)c2cccnc2N)CCO3)c1C(F)(F)F` (single isomer, unassigned) [Compound 85, 3-((R or S)-1-(5-(5-amino-4-fluoro-3-methyl-2-(trifluoromethyl)phenyl)-4-fluoro-2-(((S)-1-methylpyrrolidin-2-yl)methoxy)-8,9-dihydro-10H-7-oxa-1,3,6,10-tetraazacyclohepta[de]naphthalen-10-yl)ethyl)pyridin-2-amine], for which the half-maximal inhibitory concentration (IC50) was 0.4 nM in assay [1], 11 nM in assay [2] and 2 nM in assay [3].
For `Cc1c(F)c(N)cc(-c2nc3c4c(nc(OC[C@@H]5CCCN5C)nc4c2F)N(C(C)c2cccnc2N)CCO3)c1C(F)(F)F` (single isomer, unassigned) [Compound 86, 3-((R or S)-1-(5-(5-amino-4-fluoro-3-methyl-2-(trifluoromethyl)phenyl)-4-fluoro-2-(((S)-1-methylpyrrolidin-2-yl)methoxy)-8,9-dihydro-10H-7-oxa-1,3,6,10-tetraazacyclohepta[de]naphthalen-10-yl)ethyl)pyridin-2-amine], in that order: 29 nM, over 100 nM and 43 nM.
For `CC(c1cccnc1N)N1CCOc2nc(-c3cc(N)cc(F)c3C(F)(F)F)c(F)c3nc(OC[C@@]45CCCN4C[C@H](F)C5)nc1c23` (single isomer, unassigned) [Compound 88, 3-((R or S)-1-(5-(5-amino-3-fluoro-2-(trifluoromethyl)phenyl)-4-fluoro-2-(((2R,7aS)-2-fluorotetrahydro-1H-pyrrolizin-7a(5H)-yl)methoxy)-8,9-dihydro-10H-7-oxa-1,3,6,10-tetraazacyclohepta[de]naphthalen-10-yl)ethyl)pyridin-2-amine], in that order: 0.4 nM, 3 nM and 1 nM.
